Article PMC11035696, “Prospective de novo drug design with deep interactome learning” (Nature Communications, 2024)

How the values were obtained:
PPARγ = settings: known PPARγ activity of ChEMBL ligands; ref ChEMBL database; cited from earlier work
[1] = Microsomal clearance, mouse; type: in vitro ADME; settings: mouse microsomes, single point measurement
Experimental: (§1) Compounds 1–3 were characterized in a hybrid reporter gene assay for their agoniztic effect on human nuclear receptors PPARα/γ/δ, RXRα, FXRα, RARα in HEK293T cells. Compound 1 was tested in an isothermal titration calorimetry (ITC) assay to measure direct binding affinity to the ligand-binding domain of PPARγ. ADME properties were measured in standardized assays at Roche.
(§2) SI11Absorption Distribution Metabolism and Excretion and Toxicity Data
(§3) To assess the drug-like characteristics of the newly designed PPAR modulators, a series of tests were conducted covering various aspects of absorption, distribution, metabolism, and excretion (ADME) properties. Specifically, these assessments included the parallel artificial membrane permeability assay (PAMPA) with permeation co- […]
(§4) efficients ([…]), LogD measurements, microsomal clearance, hepatocyte clearance, P-glycoprotein (Pgp) efflux ratio and binding and the unbound free fraction. […] For seven selected CYP proteins (i.e., Cyp3A4, Cyp1A2, Cyp2B6, Cyp2C9, Cyp2D6, Cyp2C19, and Cyp2C8) the half maximal inhibitory con-centration (IC50) was determined. […]
(§5) Compounds 1 and 2 were validated for cytotoxicity on HEK293T cells. Figure S16 depicts the measured cyto-toxicity at two time points (i.e., 16h and 24h), 10 different concentrations (i.e., 0.05 - 20 µM), and 5 different

[2] = Microsomal clearance, human; type: in vitro ADME; settings: human microsomes, single point measurement
Experimental: as §1, §2, §3, §4, §5

[3] = Parallel artificial membrane permeability assay (PAMPA); type: in vitro ADME; settings: read-out: […] permeation coefficient
Experimental: as §1, §2, §3
(§6) efficients ([…]), LogD measurements, microsomal clearance, hepatocyte clearance, P-glycoprotein (Pgp) efflux ratio and binding and the unbound free fraction. […]
(§7) Table S14: Absorption distribution metabolism and excretion (ADME) properties of compounds 1 and 2. The […]
(§8) values for […], LogD, protein binding, P-glycoprotein (Pgp) efflux ratio and permeability, and hepato-cyte clearance are presented as the mean and standard deviation, with a sample size of N = 3, i.e., 3 technical replicates each. The values for microsomal clearance and CYP-inhibition represent single point measurements. […]

[4] = Lipophilicity (LogD pH 7.4); type: physicochemical
Experimental: as §1, §2, §3, §6, §7, §8

[5] = Microsomal clearance, rat; type: in vitro ADME; settings: rat microsomes, single point measurement
Experimental: as §1, §2, §3, §4, §5

| Compound | pEC50 (PPARγ) | Microsomal clearance, mouse [1] | Microsomal clearance, human [2] | Papp [3] | logD [4] | Microsomal clearance, rat [5] |
| --- | --- | --- | --- | --- | --- | --- |
| Cc1sc(-c2ccccc2F)nc1CCOc1ccc2c(c1)CC[C@H]2CC(=O)O [ChEMBL391987] | 6.94 |  |  |  |  |  |
| CO[C@@H](Cc1ccc(OCCc2nc(-c3ccccc3)oc2C)c2ccsc12)C(=O)O [aleglitazar] |  | ≥ 10 µL·min−1·mg−1 protein | ≥ 10 µL·min−1·mg−1 protein | 6 ×10⁻⁶ cm/s | 1.4 | ≥ 10 µL·min−1·mg−1 protein |
| Cc1cc(OCC[C@@H](C)Oc2ccc(Cl)cc2-c2ccccn2)ccc1CCC(=O)O [ChEMBL241299] | 6.51 |  |  |  |  |  |
